Assay results reported in patent US4466952A, “Compositions and process for the treatment of cancer” (Indiana University Foundation, priority 1983, dated 1984).

Legend:
[1] = test system: infantile female white swiss mouse; assay: Uterotropic Assay compared to estrone as standard; format: in vivo
[2] = molecular target: T1, Calf uterine cytosolic estrogen receptor (Bos taurus, UniProt P49884); assay: Estrogen Receptor assay, competition with 6,7-3H2-estradiol; format: binding
T1 construct: Calf uterine cytosolic estrogen receptor; from tissue; host or cells: calf uterus, cytosol
T1 sequence (P49884 1-596): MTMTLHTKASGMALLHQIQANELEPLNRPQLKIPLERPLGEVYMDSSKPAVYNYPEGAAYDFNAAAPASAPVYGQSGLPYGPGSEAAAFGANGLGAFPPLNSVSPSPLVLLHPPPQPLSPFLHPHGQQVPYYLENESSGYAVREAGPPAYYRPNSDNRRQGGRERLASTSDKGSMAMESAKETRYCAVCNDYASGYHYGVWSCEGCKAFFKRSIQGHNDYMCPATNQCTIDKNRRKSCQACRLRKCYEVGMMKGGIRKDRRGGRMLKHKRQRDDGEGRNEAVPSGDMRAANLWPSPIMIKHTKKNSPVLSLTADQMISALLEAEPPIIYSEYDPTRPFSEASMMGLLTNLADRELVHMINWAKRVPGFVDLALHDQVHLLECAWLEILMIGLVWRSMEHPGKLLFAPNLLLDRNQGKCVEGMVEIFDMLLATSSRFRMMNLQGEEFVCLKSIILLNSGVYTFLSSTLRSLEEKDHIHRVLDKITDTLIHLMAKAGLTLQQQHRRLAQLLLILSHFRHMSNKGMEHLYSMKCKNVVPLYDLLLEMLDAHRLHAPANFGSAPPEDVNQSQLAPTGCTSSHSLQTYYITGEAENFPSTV

[3] = test system: estrogen receptors; details: as described for the prior art; cited from earlier work
[4] = as described for the prior art; cited from earlier work

| Substance | uterotropic activity relative to estrone ([1]; 3×3 assay, 5-6 animals per dose, estrone as standard) | response compared to estrone (uterotropic) ([1]; 4×4 assay, 9-10 animals per dose, estrone as standard) [%] | uterotopic response of estrone ([1]; summary statement, relative to estrone) | estrophilic activity relative to estradiol-17β 3-carboranylmethyl ether ([2]; compared with value reported in Steroids 37, 223 (1981)) | 50% inhibition to binding ([2]; competition with 6,7-3H2-estradiol) [Mole equivalent] | estrophilic activity [3] | uterotopic activity [4] |
| --- | --- | --- | --- | --- | --- | --- | --- |
| (17β)-17-(1,2-dicarbadodecaboran(12)-1-yl)estra-1,3,5(10)-triene-3,17-diol 17-acetate [III] | about 80% | 63 | at least 63% | about two | 1 | – | – |
| estradiol-17β 3-carboranylmethyl ether | – | – | – | – | – | very low | very low |
